Test system: 14-3-3ζ/Tau pS2 peptide interaction
Assay: Fluorescence anisotropy 14-3-3ζ titration in the presence of 250 μM compound and Tau pS2 peptide
Assay type: binding
Conditions: 250 μM compound; 100 nM client peptides, 10 nM Tau pS2 peptide
Protocol: On the other hand, the PPI stabilizing potency of series 1 compounds was highly dependent on the position and chemical property of the substituent. […] The compound screen for these compounds was further complemented by 14-3-3ζ titration assays in the presence of a constant concentration of compound (250 μM) and Tau pS2 peptide (10 nM) (Fig. 3c, ESI ^† Fig. S6).
This statement is strengthened by the diminished stabilizing activity when shifting the more polar chloro substituent from the para (14) to the ortho (5) to the meta position (8), respectively. […]
chromatography (HisTrap high performance cartridges, Cytiva). Typically two 5 mL columns were used for a 2 L culture in which the lysate was loaded on the column, washed with 10 CV wash buffer (50 mM Hepes, pH 8.0, 300 mM NaCl, 25 mM imidazole, 2 mM βME), and eluted with several fractions (2-4 CV) of elution buffer (50 mM Hepes, pH 8.0, 300 mM NaCl, 250 mM imidazole, 2 mM βME). Fractions containing the 14-3-3 protein were combined and dialyzed into 25 mM HEPES pH 8.0, 200 mM NaCl, 10 mM MgCl2, 2 mM βME, followed by dialysis into 25 mM HEPES, 100 mM NaCl, 10 mM MgCl2, 500 μM TCEP (adjusted to pH 8.0). Dialyzed protein was concentrated to ∼40 mg/mL, analyzed by Q -Tof LC/MS, and aliquots were flash -frozen for storage at −80 °C. For 14 -3-3σ∆c, 1 mg TEV per 100 mg purified protein was added to the dialysis to remove the purification tag. The cleaved sample was then again loaded on a 10 mL Ni-NTA column to separate the cleaved product from the expression tag and residual uncleaved protein. The flowthrough was loade d on a Superdex 75 pg 16/60 size exclusion column (GE Life Sciences) using 25 mM HEPES, 100 mM NaCl, 10 mM MgCl2, 500 μM TCEP (adjusted to pH = 8.0) as running buffer. Fractions containing the 14 -3-3 protein were pooled and concentrated to ∼60 mg/mL, analyzed Q -Tof LC/MS, and aliquots were flash -frozen for storage at −80°C.
Fluorescence Anisotropy – compound titration
Compound titration assays were performed by titrating compounds (in 1% DMSO, starting at 500 μM) in a 2-fold dilution series to preformed complex of fluorescein -labeled Tau pS2 (10 nM) and 14 -3-3ζ (100 nM) (which represents approximately 20% bound Tau pS2 peptide to 14 -3-3ζ to allow further complex formation by addition of fragments 1) in FA buffer (10 mM HEPES pH 7.4, 150 mM NaCl, 50 µM TCEP, 0.1% (v/v) Tween20, 0.1% (w/v) BSA). Dilution series were made in polystyrene low -volume 384 -well plates (Corning #4514, Black Round Bottom). Measurements were performed directly after plate preparation, using a Tecan SPARK plate reader at room temperature ( λex: 485±20 nm; λem: 535±25 nm; mirror: automatic; flashes: 30; settle time: 1 ms; gain: optimal; Z -position: calculated from well). Wells containing only fluorescein labelled peptide were used to set as G -factor calibrated from these wells. All data were analyzed using GraphPad Prism (10.0.1) and fitted with a four -parameter logistic model (4PL) to determine binding affinities (dissociation constant, KD). All data shown is background corrected for the signal without 14 -3-3ζ and the mean and standard deviation of technical duplicate is plotted, assay performed in a scientific duplicate for hit compounds.
Fluorescence Anisotropy – 14-3-3 titrations in the presence of compound To characterize the affinity of the Tau peptides for 14-3-3 in the presence of compound, 14-3-3ζ or γ was titrated in a 2-fold dilution series starting at 400 (for the 14-3-3ζ titrations to Tau pS2) or 800 (for the 14-3-3γ titrations to Tau pS214 or pS324) µM. 14-3-3 was added to 10 nM of fluorescein-labeled peptide (Tau pS2, Tau pS214 or Tau pS324) in the presence of 250 µM compound (1% DMSO). The assays were performed in a similar way as described above. Data shown is the average and standard deviation of a technical duplicate, top plateau corrected where needed, assay performed in a scientific duplicate.
Fluorescence Anisotropy – peptide screen […]

**Q.** `CCc1ccc(-c2nccn2-c2ccc(C=O)c(Br)c2)cc1` [Compound 18] was tested. Which “selectivity against panel of 13 14-3-3 client peptides (in words)” value did it give?
**A.** selective for the 14-3-3ζ/Tau pS2 peptide complex

Reference: PMC11892739, “Site-specific molecular glues for the 14-3-3/Tau pS214 protein–protein interaction via reversible covalent imine tethering” (RSC Medicinal Chemistry, 2025)
